pEC50: −log10 of the molar value.
How the values were obtained:
Assay type in all cases: cell-based
[1] = system: SKM1; assay: AraC EC50 in parental and AraC resistant cells; conditions: Homo sapiens
[2] = system: HL60; assay: AraC EC50 in parental and AraC resistant cells; conditions: Homo sapiens
[3] = system: KG1; assay: AraC EC50 in parental and AraC resistant cells; conditions: Homo sapiens
[4] = system: intracellular calcium in HL60 cells; assay: Calcium mobilization assay (Fura2 probe); conditions: 10 µM EDK-87/EDK-88, 50 µM chloroquine
Description: 1,000 cells of AML cell lines or 50,000 primary cells (both AML and lin-depleted UCB) were treated at the indicated concentration for 18 h, and cultured in 1 mL of MethoCult H4034 Optimum (StemCell Technologies, Vancouver, BC, Canada).
Colonies were screened based on morphology and cellularity at day 7 (cell lines) […]
Calcium mobilization assay
1 x 10^6 cells per mL were loaded for 30’ at 37 °C with the Fura-2-AM probe (Thermo Fisher) at a final 2 µM concentration in pre-warmed calcium- and magnesium-free Hanks BSA solution. Cells were then washed and resuspended in Hanks BSA solution with calcium and magnesium at 3 x 10^5 cells per mL. In parallel, 50µL of drugs in Hanks BSA solution with calcium and magnesium were added to 96-well black wall clear bottom plates and background fluorescence […]
Cells were then added to the plate
(50µL/well) and fluorescence was acquired at indicated timepoints using a Synergy HT Multi-Detection Microplate Reader (BioTek). For the analysis, all values were subtracted their corresponding background fluorescence, and the ratio 340/380 was calculated. Finally, ratios were normalized to vehicle-treated […]
Semi-Quantitative Real Time PCR

[5] = system: HS-5; assay: Pancancer cell line panel viability (nontumor line); conditions: HS-5 (nontumor); 10 µM; 48 h
Description: (§1) First, 2 × 10^5 (72 h assays in cell lines (Supplementary File S1)), 3 × 10^5 (48 h assays in cell lines) or 7.5 × 10^5 (primary AML, healthy donor buffy coats) cells per mL were cultured in 96-well plates, and all drugs were added at the indicated concentrations. In α-tocopherol experiments, cells were treated with growing concentrations of α-tocopherol and EDK drugs for 48 h. In the NAC and 3MA experiments, treatment was simultaneous with EDK compounds. In glucose deprivation experiments, cells were cultivated with a standard medium (glucose high, 2 g/L), a standard medium without glucose, or a standard medium with galactose (2 g/L) and without glucose. Cell viability was measured via 7-AAD (eBioscience) exclusion and Hoechst33342 (Sigma-Aldrich, St. Louis, MO, USA) positivity staining via flow cytometry, and the cell count was obtained through volume. In the experiments with the primary cells, analyses were performed inside the blast population as detected via blast gates (CD45^low SSC^int). For solid tumor cell lines, viability was analyzed using CellTiter-Glo® Luminescent Cell Viability Assay (Promega).
(§2) AML cell lines and cell cultures
(§3) Cell lines HL-60 (ACC-3), KG-1 (ACC-14), MonoMac-1 (ACC-252), Kasumi-1 […]
(§4) obtained from DSMZ. Cell lines THP-1 (TIB-202TM), MCF-7 (HTB-22™), MDA- […]
(§5) 3216™) and HS-5 (CRL-11882™) were obtained from ATCC. HBL-2 cell line was kindly supplied by Dr. Pérez-Galán (IDIBAPS, Barcelona, Spain). SKM-1 and U937 were kindly provided by Dr. Marcus Buschbeck (IJC, Badalona, Spain). All cell lines were cultured in the conditions indicated by the providers, and were tested for mycoplasma on a monthly basis.
(§6) All drugs were resuspended in H2O (Thermo Fischer Scientific), DMSO (Sigma-Aldrich) or ethanol (VWR) according to manufacturer’s specifications. - tocopherol, 3-methyladenine (3MA), arsenic trioxide (ATO) and N-acetyl-L-cysteine (NAC) were purchased from Sigma Aldrich. Chloroquine diphosphate was purchased from Merck. Etoposide and ionomycin were purchased from […]
(§7) (1 picture or pasted object on this page, not shown here)

[6] = system: HEK-293T; assay: as above; conditions: HEK-293T (nontumor); 10 µM; 48 h
Description: as §1, §2, §3, §4, §5, §6, §7

[7] = system: ACHN; assay: Pancancer cell line panel viability; conditions: 10 µM, 48 h
Description: as §1, §2, §3, §4, §5, §6, §7

[8] = system: JJN3; assay: Pancancer cell line panel viability; conditions: 10 µM, 48 h
Description: as §1, §2, §3, §4, §5, §6, §7

[9] = system: HBL2; assay: Pancancer cell line panel viability; conditions: 10 µM, 48 h
Description: as §1, §2, §3, §4, §5, §6, §7

[10] = system: MDA-MB-231; assay: Pancancer cell line panel viability; conditions: 10 µM, 48 h
Description: as §1, §2, §3, §4, §5, §6, §7

[11] = system: NCI; assay: Pancancer cell line panel viability; conditions: 10 µM, 48 h
Description: as §1, §2, §3, §4, §5, §6, §7

[12] = system: HCT-116; assay: Pancancer cell line panel viability; conditions: 10 µM, 48 h
Description: as §1, §2, §3, §4, §5, §6, §7

[13] = system: GRANTA; assay: Pancancer cell line panel viability; conditions: 10 µM, 48 h
Description: as §1, §2, §3, §4, §5, §6, §7

[14] = system: PC-3; assay: Pancancer cell line panel viability; conditions: 10 µM, 48 h
Description: as §1, §2, §3, §4, §5, §6, §7

[15] = system: Jurkat; assay: Pancancer cell line panel viability; conditions: 10 µM, 48 h
Description: as §1, §2, §3, §4, §5, §6, §7

[16] = system: SR; assay: Pancancer cell line panel viability; conditions: 10 µM, 48 h
Description: as §1, §2, §3, §4, §5, §6, §7

[17] = system: HOP62; assay: Pancancer cell line panel viability; conditions: 10 µM, 48 h
Description: as §1, §2, §3, §4, §5, §6, §7

[18] = system: DU-145; assay: Pancancer cell line panel viability; conditions: 10 µM, 48 h
Description: as §1, §2, §3, §4, §5, §6, §7

[19] = system: OVCAR; assay: Pancancer cell line panel viability; conditions: 10 µM, 48 h
Description: as §1, §2, §3, §4, §5, §6, §7

[20] = system: U266; assay: Pancancer cell line panel viability; conditions: 10 µM, 48 h
Description: as §1, §2, §3, §4, §5, §6, §7

[21] = system: CAKI; assay: Pancancer cell line panel viability; conditions: 10 µM, 48 h
Description: as §1, §2, §3, §4, §5, §6, §7

[22] = system: MDA-MB-435; assay: Pancancer cell line panel viability; conditions: 10 µM, 48 h
Description: as §1, §2, §3, §4, §5, §6, §7

[23] = system: M14; assay: Pancancer cell line panel viability; conditions: 10 µM, 48 h
Description: as §1, §2, §3, §4, §5, §6, §7

[24] = system: RAMOS; assay: Pancancer cell line panel viability; conditions: 10 µM, 48 h
Description: as §1, §2, §3, §4, §5, §6, §7

[25] = system: MCF-7; assay: Pancancer cell line panel viability; conditions: 10 µM, 48 h
Description: as §1, §2, §3, §4, §5, §6, §7

[26] = system: K562; assay: Pancancer cell line panel viability; conditions: 10 µM, 48 h
Description: as §1, §2, §3, §4, §5, §6, §7

[27] = system: MOLT4; assay: Pancancer cell line panel viability; conditions: 10 µM, 48 h
Description: as §1, §2, §3, §4, §5, §6, §7

[28] = system: HCT-15; assay: Pancancer cell line panel viability; conditions: 10 µM, 48 h
Description: as §1, §2, §3, §4, §5, §6, §7

[29] = system: A549; assay: Pancancer cell line panel viability; conditions: 10 µM, 48 h
Description: as §1, §2, §3, §4, §5, §6, §7

Nc1ccn([C@@H]2O[C@H](CO)[C@@H](O)[C@@H]2O)c(=O)n1 [AraC, cytarabine]
pEC50 ([1]; SKM-1, SKM1 AraCR (AraC resistant)): 5.31 | pEC50 ([1]; SKM-1, SKM1 WT): 6.94 | pEC50 ([2]; HL-60, HL60 AraCR (AraC resistant)): 6.66 | pEC50 ([2]; HL-60, HL60 WT): 7.53 | pEC50 ([3]; KG-1, KG1 AraCR (AraC resistant)): 6.40 | pEC50 ([3]; KG-1, KG1 WT): 7.30

CCN(CC)CCCC(C)Nc1ccnc2cc(Cl)ccc12 (centres unmarked) [CHL, chloroquine, reference compound]
intracellular calcium mobilization [4]: failed to mobilize intracellular calcium | # Live cells refer to control [5]: 74% | # Live cells refer to control [6]: 67% | # Live cells refer to control [7]: 93% | # Live cells refer to control [8]: 84% | # Live cells refer to control [9]: 62% | # Live cells refer to control [10]: 50% | # Live cells refer to control [11]: 69% | # Live cells refer to control [12]: 80% | # Live cells refer to control [13]: 51% | # Live cells refer to control [14]: 63% | # Live cells refer to control [15]: 94% | # Live cells refer to control [16]: 23% | # Live cells refer to control [17]: 55% | # Live cells refer to control [18]: 54% | # Live cells refer to control [19]: 74% | # Live cells refer to control [20]: 67% | # Live cells refer to control [21]: 55% | # Live cells refer to control [22]: 44% | # Live cells refer to control [23]: 42% | # Live cells refer to control [24]: 115% | # Live cells refer to control [25]: 54% | # Live cells refer to control [26]: 105% | # Live cells refer to control [27]: 57% | # Live cells refer to control [28]: 77% | # Live cells refer to control [29]: 59%

— PMC10047683, “A Novel Family of Lysosomotropic Tetracyclic Compounds for Treating Leukemia” (Cancers, 2023)
